Converted amounts (≈) assume the structure as drawn. “And” between values parts separate entries of the source, which are not always exact repeats. Identical values can stand only once.
What was measured:
Type in all cases: in vivo
[1] = test system: Pimephales promelas; assay: Acute toxicity to fish; conditions: for % Mortality, Avg / % Mortality, single replicates (1 to 6): 2 hours
Protocol: Many compounds having insecticidal activity also show toxicity to fish. For example, rotenoids, pyrethrins, and DDT have significant toxicity to fish. For this reason, fish have been used frequently to indicate potential insecticidal activity. The present compounds were tested for acute toxicity to fish by the method described in "Methods For Acute Toxicity Tests With Fish, Macro-Invertebrates and Amphibians", EPA 660/3-75-009, Committee on Methods for Toxicity Tests With Aquatic Organisms, Environmental Protection Agency, Corvallis, OR, 1975.
The fish, commonly known as Missouri minnows or fat heads (Pimephales promelas, family, cyprinidae) were purchased from a local hatchery and equilibrated to the new surroundings for 24 hours. They were kept in deionized water, previously adjusted to pH 6.5 with phosphate buffer at 23° C. Sufficient oxygen was provided, and the fish were deprived of food during the test period.
Groups of six fish were placed in containers with different concentrations of the test compound. The percent mortality was recorded every 30 minutes. The LC 50 values (mg/L) and 95% confidence limits were determined from the percent mortality data after 2 hours of exposure from 6 separate replicates using the method of Lichfield and Wiloxon [(J. Pharmacology and Exp. Therepeutics, 96, 99-113 (1949))].

[2] = test system: cabbage looper (Trichoplusia ni [Hubner]); assay: Insecticidal activity against cabbage looper; conditions: both application rates, 1000 and 500 ppm, 14 days
Protocol: (§1) The present compounds were tested for insecticidal activity against cabbage looper (Trichoplusia ni [Hubner]), and southern armyworm (Spodoptera eridania) at application rates of 1000 and 500 ppm. The tests were conducted in petri dishes containing a solid food source in which the test compounds had been incorporated. The petri dishes containing the treated food source were infested with second instar larvae of southern armyworms or cabbage loopers. Ten larvae per replicate and two replicates per test rate were used. Mortality data were taken 14 days after infestation.

[3] = test system: southern armyworm (Spodoptera eridania); assay: Insecticidal activity against southern armyworm; conditions: both application rates, 1000 and 500 ppm, 14 days
Protocol: as §1

[4] = test system: mosquito larvae (Aedes aegypti); assay: Mosquito larvae test; conditions: 24 hours
Protocol: Similarly, in a test using mosquito larvae (Aedes aegypti) as the insect test species, SC-7 gave 15% mortality and SC-8 gave 93% mortality at an application rate of 100 ppm. In this test, one ml of a solution of 1000 ppm of the test compound in 10% acetone - 90% water was added to 9 ml of water in a culture tube. Ten mosquito larvae were added, and mortality readings were taken 24 hours later.

[5] = test system: mice; assay: Neuroleptic / CNS-depressant activity in experimental animals (general statements)
[6] = Antiamphetamine activity (method of Weissman et al., mice instead of rats); conditions: mice
Protocol: Neuroleptic drugs are said to bind to postsynaptic dopamine receptors in the brain, thereby blocking dopaminergic transmission. […] Based on this, an assay for possible neuroleptic activity was developed and is commonly used. […] 151, 339 (1966)), except that mice were used instead of rats. A comparison under the same conditions was also made of the antiamphetamine activity of a standard neuroleptic drug, haloperidol, which gave an ED50 value of 0.5 mg/Kg (Table 2).

In the case of `COc1ccc(C(O)C(C)Oc2ccc([C@@H]3O[C@@H](c4ccc(OC(C)C(O)c5ccc6c(c5)OCO6)c(OC)c4)[C@@H](C)[C@@H]3C)cc2OC)cc1OC` (stereo partly drawn) [SC-7, 2α-[3-methoxy-4-{threo-3-hydroxy-3-(3,4-dimethoxyphenyl)}isopropoxyphenyl]-5β-[3-methoxy-4-{threo-3-hydroxy-3-(3,4-methylenedioxyphenyl)}isopropoxyphenyl]-3α,4β-dimethyltetrahydrofuran], the “% Mortality, Avg” value ([1]; 0.03 mg/L) is reported as 6%, the “% Mortality, single replicates (1 to 6)” value ([1]; 0.03 mg/L, 120 min) is reported as 0% (4×) and 17% (2×) and the “% Mortality, Avg” value ([1]; 0.06 mg/L) is reported as 38%. The “% Mortality, single replicates (1 to 6)” value ([1]; 0.06 mg/L, 120 min) was 33% (4×) and 17% (2×), the “% Mortality, Avg” value ([1]; 0.09 mg/L) was 41% and the “% Mortality, single replicates (1 to 6)” value ([1]; 0.09 mg/L, 120 min) was 50% and 33% (5×). The “% Mortality, Avg” value ([1]; 0.13 mg/L) was 58%, the “% Mortality, single replicates (1 to 6)” value ([1]; 0.13 mg/L, 120 min) was 83% and 67% and 50% (4×) and the “% Mortality, Avg” value ([1]; 0.25 mg/L) was 86%. The “% Mortality, single replicates (1 to 6)” value ([1]; 0.25 mg/L, 120 min) was 100% (2×) and 83% (3×) and 67%, the “% Mortality, Avg” value ([1]; 0.5 mg/L) was 100% and the “% Mortality, single replicates (1 to 6)” value ([1]; 0.5 mg/L) was 100%. For the same compound, the LC50 ([1]; 2 hours of exposure, pH 6.5, 23° C) was 0.115 µg/mL (≈ 0.16 µM), the “insecticidal activity, cabbage looper” value [2] was “essentially inactive” and the “insecticidal activity, southern armyworm” value [3] was “essentially inactive”. The mortality at 100 ppm [4] was 15%, the CNS-depressant activity ([5]; experimental animals / mice) was “activity similar to SC-8” and the neuroleptic activity ([5]; mouse, in vivo) was “neuroleptically active”.

In the case of `O=C(CCCN1CCC(O)(c2ccc(Cl)cc2)CC1)c1ccc(F)cc1` [Haloperidol, haloperidol, reference compound], the ED50 ([6]; Mus musculus, inhibition of amphetamine-induced agitation, stereotypy, body-hydration) is reported as 0.5 mg/kg, the “% Inhibition (antiamphetamine activity)” value ([6]; dose 0.05 mg/Kg) is reported as 10% and the “% Inhibition (antiamphetamine activity)” value ([6]; dose 0.1 mg/Kg) is reported as 20%. The “% Inhibition (antiamphetamine activity)” value ([6]; dose 0.5 mg/Kg) was 40%, the “% Inhibition (antiamphetamine activity)” value ([6]; dose 0.75 mg/Kg) was 50% and the “% Inhibition (antiamphetamine activity)” value ([6]; dose 1.0 mg/Kg) was 60%. The “% Inhibition (antiamphetamine activity)” value ([6]; dose 1.3 mg/Kg) was 70% and the “% Inhibition (antiamphetamine activity)” value ([6]; dose 1.8 mg/Kg) was 90%.
